Measured values taken from ChEMBL document CHEMBL1201862, “PubChem BioAssay data set” (2004).
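Five compound concentrations were applied to cells in 96-well plates for 48 hours; endpoints were derived by simple linear interpolation of the resulting dose-response curve. GI50 marks 50% less growth.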 Calls of active or inactive are those of the source. Cut-off read from the data, not from the text of the source: active = GI50 up to about 1.1 µM and inactive = higher. Where a SMILES comes first, the peptide text is derived from it. [ ]: non-standard residue; d: D form. The star is where a group is joined. Phe(4-NO2) = N[CH](Cc1ccc([N+](=O)[O-])cc1)C(=O)O; Boc = CC(C)(C)OC(=O)*

What was measured:
Experiment in all cases: inhibition of tumour cell growth, NCI panel, 48 h
SR = system: SR
MOLT-4 = system: MOLT-4
OVCAR-4 = system: OVCAR-4
LOX IMVI = system: LOX IMVI
HOP-62 = system: HOP-62
Hs-578T = system: Hs-578T
OVCAR-8 = system: OVCAR-8
HCT-15 = system: HCT-15
SNB-19 = system: SNB-19
NCI-H522 = system: NCI-H522
CAKI-1 = system: CAKI-1
NCI-H23 = system: NCI-H23
MDA-MB-435 = system: MDA-MB-435
KM12 = system: KM12
HT-29 = system: HT-29
SF-295 = system: SF-295
SF-268 = system: SF-268
UACC-257 = system: UACC-257
HL-60 = system: HL-60

SMILES | GI50 (SR) | GI50 (MOLT-4) | GI50 (OVCAR-4) | GI50 (LOX IMVI) | GI50 (HOP-62) | GI50 (Hs-578T) | GI50 (OVCAR-8) | GI50 (HCT-15) [µM] | GI50 (SNB-19) | GI50 (NCI-H522) | GI50 (CAKI-1) | GI50 (NCI-H23) | GI50 (MDA-MB-435) | GI50 (KM12) | GI50 (HT-29) | GI50 (SF-295) | GI50 (SF-268) | GI50 (UACC-257) | GI50 (HL-60)
Oc1ccnc(SCc2ccc(Cl)cc2)n1 | > 100 µM (inactive) | 63.7 µM (inactive) | > 100 µM (inactive) | > 100 µM (inactive) | > 100 µM (inactive) | > 100 µM (inactive) | > 100 µM (inactive) | > 100 | > 100 µM (inactive) | 62.2 µM (inactive) | > 100 µM (inactive) | > 100 µM (inactive) | > 100 µM (inactive) | > 100 µM (inactive) | > 100 µM (inactive) | 87.1 µM (inactive) | > 100 µM (inactive) | > 100 µM (inactive) | 
CC1(/C=C/CCSc2ccccc2)CC(=O)C2CC1C2(C)C (stereo unspecified) | 3.19 µM (inactive) | 4.67 µM (inactive) | 38.5 µM (inactive) | 14.8 µM (inactive) | 36.9 µM (inactive) | 22.9 µM (inactive) | 22.3 µM (inactive) | 15.8 | 35.8 µM (inactive) | 13 µM (inactive) | 26.6 µM (inactive) | 12.1 µM (inactive) | 19.3 µM (inactive) | 13.2 µM (inactive) | 12.4 µM (inactive) | 21 µM (inactive) | 28.5 µM (inactive) | 14.7 µM (inactive) | 
Clc1ccc(Oc2ccc(/N=C/c3ccc(Cl)cc3Cl)cc2Cl)cc1 |  | 21.7 µM (inactive) | 44.5 µM (inactive) | 28.3 µM (inactive) | 54.3 µM (inactive) | 25.9 µM (inactive) | 41.2 µM (inactive) | 23.8 | 41.6 µM (inactive) | 25.2 µM (inactive) | 36.5 µM (inactive) | 40.8 µM (inactive) | 18.5 µM (inactive) | 29.5 µM (inactive) | 36.9 µM (inactive) | 39.5 µM (inactive) | 31.8 µM (inactive) | 66.1 µM (inactive) | 9.2 µM (inactive)
COc1cc(CC(C)=O)cc(OC)c1 | 26.6 µM (inactive) | 24.7 µM (inactive) | > 100 µM (inactive) |  | > 100 µM (inactive) |  | > 100 µM (inactive) | 31.6 | > 100 µM (inactive) |  |  | > 100 µM (inactive) | 41 µM (inactive) |  | 42.8 µM (inactive) | 91 µM (inactive) | 71.1 µM (inactive) | > 100 µM (inactive) | 27.3 µM (inactive)
CSC1=Nc2ccccc2-c2nc(-c3ccccc3)cc(-c3ccccc3)c2C1 | 31.3 µM (inactive) | > 100 µM (inactive) | 8.93 µM (inactive) | 23.2 µM (inactive) | 19.8 µM (inactive) |  | 9.98 µM (inactive) | 31.6 | 6.4 µM (inactive) | 4.7 µM (inactive) | 12.4 µM (inactive) | 12.4 µM (inactive) | 22.2 µM (inactive) | 24.9 µM (inactive) | 30.5 µM (inactive) | 13.6 µM (inactive) |  | 28.1 µM (inactive) | > 100 µM (inactive)
O=C1CCC(N2C(=O)c3ccccc3C2=O)C(=O)N1 (stereo unspecified) [THALIDOMIDE] | > 100 µM (inactive) | > 100 µM (inactive) | > 100 µM (inactive) |  | > 100 µM (inactive) | > 100 µM (inactive) | > 100 µM (inactive) | > 100 | > 100 µM (inactive) | > 100 µM (inactive) | > 100 µM (inactive) | > 100 µM (inactive) | > 100 µM (inactive) | > 100 µM (inactive) |  | > 100 µM (inactive) | > 100 µM (inactive) | > 100 µM (inactive) | 
Cc1c(N2C(=O)C(Cl)C2/C=C/c2ccccc2)c(=O)n(-c2ccccc2)n1C (stereo unspecified) | 17.5 µM (inactive) | 13.4 µM (inactive) | 29.5 µM (inactive) | 17.3 µM (inactive) | 22.8 µM (inactive) |  | 22.1 µM (inactive) |  |  | 14.4 µM (inactive) | 53 µM (inactive) | 7.59 µM (inactive) | 12.1 µM (inactive) | 12.7 µM (inactive) | 24.4 µM (inactive) | 22.1 µM (inactive) | 29.6 µM (inactive) | 4.68 µM (inactive) | 20.1 µM (inactive)
CCOC(=O)CCC(NC(=O)C(Cc1ccc([N+](=O)[O-])cc1)NC(=O)OC(C)(C)C)C(=O)NC(CCC(=O)OCC)C(=O)OCC (stereo unspecified) (Boc-[Phe(4-NO2)]-Glu(OEt)-Glu(OEt)-OEt; configuration not given here) | 2.87 µM (inactive) | 2.73 µM (inactive) |  |  | 24.2 µM (inactive) | 18.7 µM (inactive) | 18.5 µM (inactive) | 36 | 95.9 µM (inactive) |  |  | 17.9 µM (inactive) |  | 11.7 µM (inactive) | 16.3 µM (inactive) |  |  | > 10 µM (inactive) | 14.9 µM (inactive)
C=C(CCC/C(C)=C/C=C/[C@@H](C)CCCc1ccoc1)C[C@@H]1OC(=O)[C@H](C)[C@@H]1O | 10.7 µM (inactive) | 16.1 µM (inactive) | 10.2 µM (inactive) | 9.71 µM (inactive) | 8.69 µM (inactive) |  | 10.1 µM (inactive) | 10.1 | 9.25 µM (inactive) | 7.08 µM (inactive) | 9.91 µM (inactive) | 8.09 µM (inactive) | 7.96 µM (inactive) | 7.24 µM (inactive) | > 50 µM (inactive) | 7.6 µM (inactive) | 9.31 µM (inactive) | 6.35 µM (inactive) | 
